1 molecule from US12350262B2, “Methods of treatment for cystic fibrosis” (Vertex Pharmaceuticals Incorporated, priority 2017, dated 2025) can be followed below.

Data set [1] addresses T1, F508del CFTR in NIH3T3 cells (Homo sapiens, UniProt P13569, DEL508-508).
T1 construct: expressed in transfected cells
Nature of the data set: Membrane potential optical assay (correction assay). The class given is cell-based. The text has this: An optical assay was employed to measure changes in membrane potential to determine the CFTR modulator properties of compounds. The assay utilized fluorescent voltage sensing dyes to measure changes in membrane potential using a fluorescent plate reader (e.g., FLIPR III, Molecular Devices, Inc.) as a readout for increase in functional F508del in NIH 3T3 cells. The driving force for the response was the creation of a chloride ion gradient in conjunction with channel activation and concurrent with compound treatment by a single liquid addition step after the cells had previously been loaded with a voltage sensing dye.
NIH3T3 mouse fibroblasts stably expressing F508del were used for optical measurements of membrane potential. The cells were maintained at 37° C. in 5% CO2 and 90% humidity in Dulbecco's modified Eagle's medium supplemented with 2 mM glutamine, 10% fetal bovine serum, 1×NEAA, P-ME, 1× pen/strep, and 25 mM HEPES in 175 cm^2 culture flasks. For all optical assays, the cells were seeded at 12,000 cells/well in 384-well matrigel-coated plates. […] The cells were then activated and treated with Compound I. After 18-24 hours, fluorescence from the voltage sensing dye in the cells was measured to assess changes in the membrane potential as a read out for increase in functional F508del CFTR in the NIH3T3 cells.

Data set [2] deals with T2, F508del-CFTR in human bronchial epithelial (HBE) cells (Homo sapiens, UniProt P13569, DEL508-508).
T2 construct: Non-CF and CF airway epithelia were isolated from bronchial tissue; endogenous in cells; host or cells: primary CF human bronchial epithelial (HBE) cells
As to the kind of experiment: Ussing chamber assay. The class given is cell-based. The conditions noted are these: chloride current. As to the method:
Ussing chamber experiments were performed on polarized airway epithelial cells expressing F508del to further characterize the F508del modulators identified in the optical assay above. Non-CF and CF airway epithelia were isolated from bronchial tissue, cultured using methods well known in the art, and plated onto Costar® Snapwell™ filters that were precoated with NIH3T3-conditioned media. After four days the apical media was removed and the cells were grown at an air liquid interface for >14 days prior to use. […] CF-HBE cells were isolated from patients homozygous for F508del (F508del/F508del-HBE) or heterozygous for F508del with a different disease causing mutation on the other allele.
HBE cells grown on Costar® Snapwell™ cell culture inserts were mounted in an Ussing chamber (Physiologic Instruments, Inc., San Diego, CA), and the transepithelial resistance and short-circuit current in the presence of a basolateral to apical Cl^− gradient (ISC) were measured using a voltage-clamp system (Department of Bioengineering, University of Iowa, IA). Briefly, HBE cells were examined under voltage-clamp recording conditions (Vhold=0 mV) at 37° C. […]
A basolateral to apical membrane Cl^− concentration gradient was set up as follows. […] Chloride current was measured to assess the increase in functional CFTR in the cell membrane.

A short description of data set [3]: Rat pharmacokinetics, single IV and PO dose. In kind it is in vivo, male Sprague Dawley rats. The following applies: single nominal oral dose 3 mg/kg. As to the method:
Compound 1 was also administered to male Sprague Dawley rats at single nominal oral dose (PO) of 3 mg/kg as a solution in 5% NMP, 30% PEG400, 10% TPGS, 5% PVP-K30 at 5 mL/kg dose volume.
The study design, sample tracking, data run design and individual plasma sample concentrations were stored using Watson LIMS software, Version 7.4.2 (Thermo Scientific Inc, Waltham, MA). Plasma concentration-time profiles of Compound 1 in Sprague Dawley rats at scheduled (nominal) sampling times were analyzed by noncompartmental pharmacokinetic methods using PK function within Watson LIMS software, Version 7.4.2 (Thermo Scientific Inc, Waltham, MA). Key pharmacokinetic parameters such as “area under the curve” (AUC), from the time of drug administration, time zero, extrapolated to infinity, clearance (CL), and Percent of oral bioavailability (% F) were determined. The AUC values were calculated using the linear trapezoidal rule.

The test system of a further data set is healthy subjects. Nature of the data set: Safety and Efficacy Study 1, Part 1 with healthy subjects. The following applies: interim data. In kind it is in vivo, human.

pEC50: −log10 of the molar value.

T2 sequence (P13569 with tags, fused parts or gaps DEL508-508): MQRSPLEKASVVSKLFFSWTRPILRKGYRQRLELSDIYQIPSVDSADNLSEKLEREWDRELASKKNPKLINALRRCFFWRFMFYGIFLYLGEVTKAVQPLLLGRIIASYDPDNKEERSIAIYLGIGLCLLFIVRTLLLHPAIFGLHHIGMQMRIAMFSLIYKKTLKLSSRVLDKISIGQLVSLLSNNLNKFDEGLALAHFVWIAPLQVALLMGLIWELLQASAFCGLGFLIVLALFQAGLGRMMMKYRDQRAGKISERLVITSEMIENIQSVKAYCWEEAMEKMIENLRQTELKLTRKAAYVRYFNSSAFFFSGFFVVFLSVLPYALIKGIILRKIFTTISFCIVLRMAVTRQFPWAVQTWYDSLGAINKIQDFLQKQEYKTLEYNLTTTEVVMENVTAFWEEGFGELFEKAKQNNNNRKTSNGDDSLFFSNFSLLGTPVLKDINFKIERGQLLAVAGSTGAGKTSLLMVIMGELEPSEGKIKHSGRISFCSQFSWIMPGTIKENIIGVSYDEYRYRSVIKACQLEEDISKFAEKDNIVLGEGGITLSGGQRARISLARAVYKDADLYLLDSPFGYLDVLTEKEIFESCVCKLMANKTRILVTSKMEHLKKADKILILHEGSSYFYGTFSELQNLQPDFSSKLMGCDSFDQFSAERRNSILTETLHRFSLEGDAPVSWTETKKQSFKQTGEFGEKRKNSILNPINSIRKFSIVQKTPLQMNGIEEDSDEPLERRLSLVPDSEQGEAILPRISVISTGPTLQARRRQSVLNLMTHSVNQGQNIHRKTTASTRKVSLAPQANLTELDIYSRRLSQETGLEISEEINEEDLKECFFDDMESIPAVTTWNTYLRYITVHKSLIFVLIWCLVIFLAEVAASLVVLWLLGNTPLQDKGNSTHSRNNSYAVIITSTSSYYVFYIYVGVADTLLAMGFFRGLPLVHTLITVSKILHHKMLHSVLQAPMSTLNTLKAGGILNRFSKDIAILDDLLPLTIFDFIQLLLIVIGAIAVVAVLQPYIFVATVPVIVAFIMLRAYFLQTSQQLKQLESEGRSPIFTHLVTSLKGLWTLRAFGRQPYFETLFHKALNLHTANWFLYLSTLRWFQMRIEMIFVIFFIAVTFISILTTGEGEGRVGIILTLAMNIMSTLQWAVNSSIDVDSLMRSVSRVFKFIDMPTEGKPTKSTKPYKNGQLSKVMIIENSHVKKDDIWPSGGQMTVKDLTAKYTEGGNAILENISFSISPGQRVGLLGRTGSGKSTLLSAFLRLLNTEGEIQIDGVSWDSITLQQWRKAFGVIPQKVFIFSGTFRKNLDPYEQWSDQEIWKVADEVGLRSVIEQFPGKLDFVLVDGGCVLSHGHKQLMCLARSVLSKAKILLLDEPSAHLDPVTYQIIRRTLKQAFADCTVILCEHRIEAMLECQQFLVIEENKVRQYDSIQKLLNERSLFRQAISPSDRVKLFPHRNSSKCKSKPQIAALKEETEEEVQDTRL
T1 sequence (P13569 with tags, fused parts or gaps DEL508-508): as above

Regarding `Cc1nn(C)cc1S(=O)(=O)NC(=O)c1ccc(-n2ccc(OCC(C)(C)C(F)(F)F)n2)nc1N1C[C@@H](C)CC1(C)C` [Compound I, N-(1,3-dimethylpyrazol-4-yl)sulfonyl-6-[3-(3,3,3-trifluoro-2,2-dimethyl-propoxy)pyrazol-1-yl]-2-[(4S)-2,2,4-trimethylpyrrolidin-1-yl]pyridine-3-carboxamide], in data set [1] (NIH3T3, relative to Compound II, read-out: % Efficacy), the Emax is at least 100%. Besides, the pEC50 in data set [1] (NIH3T3 cells expressing F508del, 18-24 hours treatment) was above 5.52; in data set [2], above 5.70. Besides, in data set [2], the “HBE Max Eff” value was “+++ (means >100%)”. In data set [3], the “Rat PO AUC/dose” value stood at 9.4 ± 0.7 µg·h/mL/mg/kg. In addition, the safety and tolerability entry in the data set on healthy subjects (multiple doses up to 340 mg for 10 days) is “safe and well tolerated”; in the data set on healthy subjects (single doses up to 360 mg), “safe and well tolerated”.
